Assay results: patent US4063014A, “4"-O-sulfonyl erythromycin-9-O-oxime derivatives” (Abbott Laboratories, priority 1975, dated 1977)

System: S.aureus (Smith)
Test: S.aureus (Smith) infection, oral medication
Type: in vivo
Parameters: DOSAGE LEVELS 300 / DOSAGE LEVELS 150 / DOSAGE LEVELS 75 / DOSAGE LEVELS 37.5 / DOSAGE LEVELS 18.75: unit not given here
Details: for DOSAGE LEVELS 18.75: dosage level 18.75, infection 10-100 LD50, Rt-IP; for DOSAGE LEVELS 37.5: dosage level 37.5, infection 10-100 LD50, Rt-IP; for DOSAGE LEVELS 75: dosage level 75, infection 10-100 LD50, Rt-IP; for DOSAGE LEVELS 150: dosage level 150, infection 10-100 LD50, Rt-IP; for DOSAGE LEVELS 300: dosage level 300, infection 10-100 LD50, Rt-IP

Structure (SMILES)	DOSAGE LEVELS 18.75	DOSAGE LEVELS 37.5	DOSAGE LEVELS 75	DOSAGE LEVELS 150	DOSAGE LEVELS 300	ED50 (Staphylococcus aureus, infection 10-100 LD50, Rt-IP, read-out: CD50 (the source's name)) [mg/kg]
CC[C@H]1OC(=O)[C@H](C)[C@@H](O[C@H]2C[C@@](C)(OC)[C@@H](OS(=O)(=O)CCNC(=S)Nc3ccccc3)[C@H](C)O2)[C@H](C)[C@@H](O[C@@H]2O[C@H](C)C[C@H](N(C)C)[C@H]2O)[C@](C)(O)C[C@@H](C)C(=NOC)[C@H](C)[C@@H](O)[C@]1(C)O [Example V, 4"-O-[β-(3-Phenylthioureido)-1-Ethyl]sulfonyl Erythromycin-A-9-O-Methyloxime]	0	0	0	20	80	–
CC[C@H]1OC(=O)[C@H](C)[C@@H](O[C@H]2C[C@@](C)(OC)[C@@H](OS(=O)(=O)CCNC(=O)c3ccc([N+](=O)[O-])cc3)[C@H](C)O2)[C@H](C)[C@@H](O[C@@H]2O[C@H](C)C[C@H](N(C)C)[C@H]2O)[C@](C)(O)C[C@@H](C)C(=NOC)[C@H](C)[C@@H](O)[C@]1(C)O [Example XV, 4"-O-[β-(p-Nitrobenzamido)ethyl]Sulfonyl Erythromycin A-9-O-Methyloxime]	10	10	0	0	60	–
CC[C@H]1OC(=O)[C@H](C)[C@@H](O[C@H]2C[C@@](C)(OC)[C@@H](OS(=O)(=O)CCNC(=O)Nc3ccccc3)[C@H](C)O2)[C@H](C)[C@@H](O[C@@H]2O[C@H](C)C[C@H](N(C)C)[C@H]2O)[C@](C)(O)C[C@@H](C)C(=NOC)[C@H](C)[C@@H](O)[C@]1(C)O [VI, 4"-O-[β-(3-Phenylureido)-Ethyl]sulfonyl Erythromycin A-9-O-Methyloxime]	10	20	20	10	50	–
CC[C@H]1OC(=O)[C@H](C)[C@@H](O[C@H]2C[C@@](C)(OC)[C@@H](OS(=O)(=O)CCNC(=O)CNC(=O)OCc3ccccc3)[C@H](C)O2)[C@H](C)[C@@H](O[C@@H]2O[C@H](C)C[C@H](N(C)C)[C@H]2O)[C@](C)(O)C[C@@H](C)C(=NOC)[C@H](C)[C@@H](O)[C@]1(C)O [XII, 4"-O-[β-(N-Carbobenzyloxyglycyl)Amidoethyl]Sulfonyl Erythromycin A-9-O-Methyloxime]	20	0	0	0	30	> 300
CC[C@H]1OC(=O)[C@H](C)[C@@H](O[C@H]2C[C@@](C)(OC)[C@@H](OS(=O)(=O)CCNS(=O)(=O)c3ccc([N+](=O)[O-])cc3)[C@H](C)O2)[C@H](C)[C@@H](O[C@@H]2O[C@H](C)C[C@H](N(C)C)[C@H]2O)[C@](C)(O)C[C@@H](C)C(=NOC)[C@H](C)[C@@H](O)[C@]1(C)O [XVII, 4"-O-[β-(p-Nitrobenzenesulfonamido)Ethyl]Sulfonyl Erythromycin A-9-O-Methyloxime]	0	10	10	0	80	–
